Patent publication US20210275493A1, “IMMUNO-ONCOLOGY THERAPY USING ISOFLAVONE COMPOUNDS” (NOXOPHARM LIMITED, priority 2019, published 2021)
pIC50: −log10 of the molar value. Entries after “also recorded” stand apart in the source; their conditions may differ.

What was measured:
[1] = tested on: T cells infiltrating C17/NPC43+ve spheroids; assay: Flow cytometry of spheroid-infiltrating T cells (IN/OUT) in NPC spheroid/PBMC coculture; format: cell-based
Protocol: (§1) For flow cytometry analyses, 8 wells/condition were seeded. OUT and IN compartments were isolated by first pooling the 8 cocultures wells in eppendorf tubes. Spheroids were gently resuspended and left to sediment to the bottom of the tubes. Supernatant cell suspension constituted the non-infiltrating immune cells (=OUT). These steps were repeated twice with Phosphate Buffer Saline (PBS) in order to separate the spheroids from the non-infiltrating immune cells. Spheroids were then trypsinized to obtain a single cell suspension (=IN) and further analyzed by flow cytometry.
Differences in quantitative variables were analyzed by the Mann-Whitney U test when comparing 2 groups. A p value<0.05 was considered as statistically significant.
(§2) The interactions between tumor spheroids and PBMCs through heterotypic cocultures was explored. Spheroids were generated from an NPC cell line cocultured with PBMCs obtained from healthy donors that were HLA-matched whenever possible. After coculture, lymphocyte tumor infiltration and tumor cell apoptosis were measured. The cellular compositions within infiltrated tumor spheroids by mechanically separating infiltrating cells (IN) and cells remaining in the medium (OUT) were studied. A description of the coculture experimental protocol is illustrated in FIG. 1.
These findings support the use of idronoxil to induce immunomodulatory responses, and in combination with conventional chemotherapies, enhance antitumor immunity. […] Finally, additionally to the above findings the inventors detected a significant reduction in PD1^+ expression in total infiltrating memory cells compared to DMSO controls (mean 48.57±5.117 vs. mean 62.06±3.066; p=0.0086; FIG. 3). In contrast, significant up-regulation in PD1^+ expression in naïve infiltrated cells upon idronoxil treatment as compared to DMSO (mean 62.10±7.049 vs. mean 43.57±3.870; p=0.0017) was found.

[2] = Clinical examples: plasma concentration after daily dosing; format: in vivo, human; conditions: 800 mg daily dosage for a period of 7 days
Protocol: An individual presents with metastatic castration resistant prostate cancer. […] The individual has not been prior treated with an […]. The individual is given 800 mg daily dosage of idronoxil for a period of 7 days to establish a plasma concentration of 350 ng/mL of idronoxil. The individual is then administered with an anti-PD-1 antibody according to the product information. The dosage cycle is repeated twice and the individual is assessed for response to anti PD-1 therapy.
An individual presents with advanced melanoma, having been assessed at 12 weeks from first administration of an anti-CTLA-4 antibody as having stable disease and not having achieved a partial response. The individual is given 800 mg daily dosage of idronoxil for a period of 7 days to establish a plasma concentration of 350 ng/mL of idronoxil. The individual is then administered with an anti-CTLA-4 antibody according to the product information. The dosage cycle is repeated twice and the individual is assessed for response to anti-CTLA-4 therapy.

[3] = tested on: NPC cell line spheroids cocultured with PBMCs; assay: Coculture of NPC tumor spheroids and PBMCs: PBMC infiltration; format: cell-based
Protocol: (§3) For the generation of tumor spheroids in 3D, 200 μL/well of cell suspension in culture medium was seeded at cell densities of 20,000 cells/well. NPC (C17/NPC43+ve) cells were dispensed into Nunclon Sphera 96 wells plate (Thermo Fisher Scientific). The Nunclon Sphera surface was designed to cause minimal cell attachment with minimal extracellular matrix protein binding to the plate surfaces. Plates were incubated at 37° C. and 5% CO2 in RPMI supplemented with FBS and ROCK inhibitor.
as §1, §2
An increase in PBMCs infiltration in the tumor spheroids upon treatment was detected as early as 2 hours after the beginning of the experiment, while the number of infiltrated cells remained constant in the controls (DMSO) over 72 hours of coculture. […] Moreover, the CellEvent staining was performed on the coculture to confirm the induction of apoptosis and observed that spheroid infiltration was proportional to an active apoptosis process in tumor cells. […]

[4] = tested on: A549 lung adenocarcinoma spheroids with PBMCs; assay: A549 spheroid PBMC co-culture: microscopy and FACS; format: cell-based, human
Protocol: (§4) Spheroids were generated using the liquid overlay technique. Therefore, a 96 well cell culture plate (Greiner) was precoated with 1.5% (w/v) agarose. For this, 0.75 g of agarose was diluted in 50 ml PBS and boiled for 15 min in a pressure cooker at full pressure, followed by another 10 min at lowest pressure level. 50 μl of agarose solution was added to each well of the 96 well plate and allowed to cool down at RT (under a cell culture hood). Tumor cells were trypsinized and adjusted to a cell suspension of 25.000 cells/ml in medium (RPMI 1640, 10% FCS, 1% penicillin/streptomycin). The outer wells of the 96 well plates were filled with PBS, and the remaining wells were filled with 200 μl cell suspension. Cell aggregation was triggered by centrifugation of the plate at 500× g, 5 min, RT. Plates were then maintained for 5 days in an incubator (37° C., humidified atmosphere). Medium was changed every two days by careful aspiration. Spheroid size was acquired with a Carl Zeiss Axiovert microscope and diameters were determined using AxioVision 40 software.
(§5) PBMCs were isolated from buffy coats (DRK-Blutspendedients Baden-Würtemberg-Hessen, Institut für Transfusionsmedizin and Immunhämatologie, Frankfurt am Main, Germany) using Bicoll-Hypaque gradients. Two 50 ml Leukosep® tubes (Greiner) per buffy coat were filled with 15 ml lymphocyte separation medium (Sigma Aldrich) and centrifuged at 1000×g, 1 min, RT, to place the solution below the membrane. Afterwards 30 ml human blood from buffy coats was added, tubes were filled up to 50 ml with PBS/2 mM EDTA solution, and centrifuged at 500×g, 45 min, RT without break. After density gradient centrifugation, the intermediate white layer composed of mononuclear cells was transferred into a fresh sterile 50 ml tube and washed twice with PBS/2 mM EDTA. After RBC lysis (RBC lysis buffer: 135 mM NH4Cl, 10 mM NaHCO3, 0.1 mM EDTA; for 4 min at RT, stop with PBS) cells were diluted in RPMI 1640 medium (+10% FCS, 1% penicillin/streptomycin) at 2×10^6 cells/ml.
(§6) PBMCs were activated with 25 μl/ml CD3/CD28 T cell activator cocktail (StemCell Technologies), and 50.000 pre-activated PBMCs/well were added to spheroids. Afterwards, co-cultures were stimulated with 1 μM or 10 μM idronoxil or DMSO for 3 days. After three days, samples were either harvested for downstream analysis or treated again with 1 μM or 10 μM idronoxil or DMSO±10 μg/ml anti-PD-1 antibody (BioXCell) or the isotype control for another 3 days. Spheroid size was acquired with a Carl Zeiss Axiovert microscope and diameters were determined using AxioVision 40 software. Spheroids were harvested by transferring 5 spheroids of each group into FACS tubes (BD Biosciences), followed by centrifugation (500× g, 5 min, 4° C.). After removing the supernatant, 100 μl Accutase (Sigma Aldrich) was added to the spheroids, followed by 15 min incubation at 37° C. and generation of single cell suspensions by shearing the cell suspension repeatedly trough pipetting using 100 μl filter pipette tips. After centrifugation (500×g, 5 min, 4° C.) and removal of supernatant, cells were blocked with 80 μl of 0.5% BSA/PBS and 2 μl FcR-blocking reagent (Miltenyi Biotec) for 15 min on ice. Thereafter, cells were stained with an antibody mix consisting of anti-human CD4 PE-CF594, anti-human CD8 APC-H7, anti-human TCRab FITC, anti-human CD33 BV510, anti-human CD45 AF700, anti-human CD279 APC, and anti-human CD274 BV421 (each from BD Biosciences) antibodies for 20 min on nice in the dark. After washing with 500 μl FACS Flow (BD Biosciences), cells were resuspended in 300 μl FACS Flow, 20 μL absolute count standard (Bangs Laboratory) were added to each sample, and samples were acquired using an LSR II/Fortessa flow cytometer (BD Biosciences). All Antibodies were previously titrated to determine optimal concentrations. Antibody-capturing CompBeads (BD Biosciences) were used to create the multi-color panel compensation matrix. […]

[5] = tested on: MCF-7 mammary carcinoma spheroids with PBMCs; assay: MCF-7 spheroid PBMC co-culture: microscopy and FACS; format: cell-based, human
Protocol: as §4, §5, §6

[6] = tested on: NPC (C17/NPC43+ve) cells, C17 spheroid; assay: 3D tumor spheroid apoptosis imaging (CellEvent Caspase-3/7); format: cell-based
Protocol: as §3
To mimic in vivo conditions, the cytotoxicity of idronoxil on NPC cells using three-dimensional (3D) tumor cultures was examined. The effect of increasing concentrations of idronoxil was monitored on apoptosis using fluorescent probes (non-toxic CellEvent Caspase-3/7 Green and LysoTracker Deep Red) in combination with bright-field microscopy to perform persistent real-time spheroid imaging. […] When LysoTracker was added to the spheroids, the staining pattern was complementary to that of CellEvent, with the LysoTracker constantly accumulating in the outer and presumably metabolically active layers of the spheroids.

[7] = tested on: NPC cell lines; assay: In vitro exposure of NPC cell lines: T-cell chemokine expression; format: cell-based

Oc1ccc(C2=Cc3ccc(O)cc3OC2)cc1 [idronoxil, 2H-1-Benzopyran-7-0,1,3-(4-hydroxyphenyl)]
double-positive (DP) T cells in the tumor structure ([1]; CD3+ populations IN vs OUT, 72 hours): significant increase | PD1+ expression in naïve infiltrated cells (mean) ([1]; DMSO control 43.57±3.870, p=0.0017): 62.10±7.049 | PD1+ expression in total infiltrating memory cells (mean) ([1]; DMSO control 62.06±3.066, p=0.0086): 48.57±5.117 | proportions of CD45RO+ CD27+ memory cells among infiltrating DP T cells ([1]; compared to control): decreased proportions | proportions of CD45RO- CD27+ naïve cells among infiltrating DP T cells ([1]; compared to control): increased proportions | CD62L expression of tumor-infiltrating DP T cells ([1]; compared to control, CCR7 not reduced): pronounced reduction | plasma concentration of idronoxil [2]: 0.35 µg/mL | time at which increase in PBMCs infiltration was detected ([3]; after the beginning of the experiment): 2 h | idronoxil-induced PBMC migration upon blockade of CXCL10 ([3]; neutralizing antibodies added to tumor spheroid cultures): significantly reduced | influx of PBMC into the spheroids ([3]; vs DMSO control, up to 72 hours of coculture): significantly increased | 3D spheroid size ([4]; 1 μM, day 6): reduced | 3D spheroid size ([4]; 10 μM, day 3): reduces | immune activation (cluster formation) ([4]; 10 μM, day 3): induces or maintains | expression of PD1 on CD8+ T cells ([4]; 10 μM, day 3, FACS): reduced | expression of PDL1 on myeloid cells ([4]; 10 μM, day 3, FACS): reduced | immune activation (cluster formation) ([4]; 10 μM, day 6): maintains | invasion of the cells (into agarose) ([4]; 10 μM, day 6): reduced; also recorded: prevents | spheroid size ([4]; 10 μM, day 6): reduced | expression of PD1 on both CD4+ and CD8+ T cells ([4]; 10 μM, day 6, FACS): reduces | expression of PDL1 on myeloid cells ([4]; 10 μM, day 6, FACS): reduces | immune cell infiltrates ([4]; 10 μM, day 6, FACS): increased | expression of PD1 on CD4+ T cells ([5]; 10 μM, day 3, FACS): reduces | expression of PDL1 on myeloid cells ([5]; 10 μM, day 3, FACS): reduces | number of myeloid cells ([5]; 10 μM, day 3, FACS): reduces | 3D spheroid size ([5]; 10 μM, day 6): reduced | immune function of the cells (cluster formation) ([5]; 10 μM, day 6): maintained | number of tumor cells ([5]; 10 μM, day 6, FACS): reduces | 3D spheroid size ([5]; day 3): reduced | immune activation (cluster formation) ([5]; day 3): induced or maintained | expression of PD1 on both CD4+ and CD8+ T cells ([5]; day 6, especially at 10 μM, FACS): reduces | PDL1 expression by myeloid cells ([5]; day 6, idronoxil in general, FACS): strongly reduces | IC50 values, spheroid-derived cells in 3D versus 2D conditions ([6]; 3D vs 2D): comparable | pIC50 ([6]; C17 spheroids, 3D culture, apoptosis by CellEvent Caspase-3/7, read-out: IC50 (3D CellEvent dose-response curve)): 5.68 | intensity of C17 spheroid staining with CellEvent ([6]; increasing concentrations of idronoxil): proportional to idronoxil concentrations | expression of T-cell chemokines [7]: expression of the T-cell chemokines CXCL8, 9 and 10
